# Reference: article PMC2922759 (European journal of pharmacology, 2009)
# Where “and” joins values, the source holds several entries; their conditions need not be identical. Equal values may be shown once. Entries after “also recorded” stand apart in the source; their conditions may differ.
# Columns and labels:
# [1] = system: conditioned place preference; experiment: Rat conditioned place preference; format: in vivo; conditions: for conditioned place preference (time spent in drug paired side): SCH 486757 10 mg/kg p.o., amphetamine 3 mg/kg, morphine 10 mg/kg, 4 pairings
# capsaicin-induced cough = conditions: for doses producing significant CNS effects (lethargy, ataxia): guinea pig, in vivo, po
# Rat NOP receptor = Rat NOP receptor (Rattus norvegicus, UniProt P35370); experiment: NOP receptor binding, clone; conditions: rat clone (CHO cells); Mean±S.E.M.
# Rat NOP receptor, sequence (P35370 whole entry): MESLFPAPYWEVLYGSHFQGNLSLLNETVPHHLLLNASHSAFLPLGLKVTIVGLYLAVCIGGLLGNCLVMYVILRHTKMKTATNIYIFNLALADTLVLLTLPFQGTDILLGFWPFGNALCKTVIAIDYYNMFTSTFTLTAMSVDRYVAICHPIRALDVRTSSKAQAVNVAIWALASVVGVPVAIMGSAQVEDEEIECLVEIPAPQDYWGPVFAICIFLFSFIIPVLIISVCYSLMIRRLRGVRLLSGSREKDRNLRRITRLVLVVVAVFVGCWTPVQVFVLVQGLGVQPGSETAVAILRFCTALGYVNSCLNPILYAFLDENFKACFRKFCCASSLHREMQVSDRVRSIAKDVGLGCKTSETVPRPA
# Serotonin 5-HT6 = Serotonin 5-HT6 (Homo sapiens, UniProt P50406); experiment: MDS Pharma Services counterscreen binding; conditions: semi-quantitative
# Serotonin 5-HT6, sequence (P50406 whole entry): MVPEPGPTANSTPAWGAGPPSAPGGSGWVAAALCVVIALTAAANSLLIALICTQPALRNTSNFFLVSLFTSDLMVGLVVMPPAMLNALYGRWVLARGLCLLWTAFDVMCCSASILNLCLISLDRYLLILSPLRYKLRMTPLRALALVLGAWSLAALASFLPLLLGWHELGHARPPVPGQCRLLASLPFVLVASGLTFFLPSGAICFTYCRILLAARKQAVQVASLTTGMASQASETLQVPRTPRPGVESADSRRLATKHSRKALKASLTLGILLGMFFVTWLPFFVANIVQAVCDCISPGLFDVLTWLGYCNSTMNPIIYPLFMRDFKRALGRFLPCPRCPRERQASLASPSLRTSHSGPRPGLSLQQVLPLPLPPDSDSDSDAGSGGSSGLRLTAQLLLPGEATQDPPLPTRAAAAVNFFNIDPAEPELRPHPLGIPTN
# [2] = Pharmacokinetic profile in the rat; format: in vivo; conditions: 10 mg/kg p.o.
# [3] = system: mechanically-induced cough; experiment: Feline mechanically-induced cough; format: in vivo, cat; conditions: intra-vertebral artery, 0.001–0.3 mg/kg cumulative
# [4] = molecular target: human DOP opioid receptor (Homo sapiens, UniProt P41143); experiment: Opioid receptor binding, [3H]diprenorphine; conditions: human DOP in CHO cell membranes, Mean±S.E.M.
# human DOP opioid receptor, sequence (P41143 whole entry): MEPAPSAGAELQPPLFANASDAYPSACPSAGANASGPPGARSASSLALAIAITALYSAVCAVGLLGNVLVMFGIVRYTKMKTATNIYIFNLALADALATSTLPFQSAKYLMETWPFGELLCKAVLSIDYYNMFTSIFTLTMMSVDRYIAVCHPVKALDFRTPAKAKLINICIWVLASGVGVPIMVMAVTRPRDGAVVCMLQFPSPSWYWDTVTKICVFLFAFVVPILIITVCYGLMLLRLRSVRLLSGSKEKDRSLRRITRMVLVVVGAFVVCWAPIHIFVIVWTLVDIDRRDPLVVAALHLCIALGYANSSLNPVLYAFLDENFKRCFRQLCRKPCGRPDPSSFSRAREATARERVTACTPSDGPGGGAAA
# [5] = molecular target: human KOP opioid receptor (Homo sapiens, UniProt P41145); experiment: Opioid receptor binding, [3H]diprenorphine; conditions: human KOP in CHO cell membranes, Mean±S.E.M.
# human KOP opioid receptor, sequence (P41145 whole entry): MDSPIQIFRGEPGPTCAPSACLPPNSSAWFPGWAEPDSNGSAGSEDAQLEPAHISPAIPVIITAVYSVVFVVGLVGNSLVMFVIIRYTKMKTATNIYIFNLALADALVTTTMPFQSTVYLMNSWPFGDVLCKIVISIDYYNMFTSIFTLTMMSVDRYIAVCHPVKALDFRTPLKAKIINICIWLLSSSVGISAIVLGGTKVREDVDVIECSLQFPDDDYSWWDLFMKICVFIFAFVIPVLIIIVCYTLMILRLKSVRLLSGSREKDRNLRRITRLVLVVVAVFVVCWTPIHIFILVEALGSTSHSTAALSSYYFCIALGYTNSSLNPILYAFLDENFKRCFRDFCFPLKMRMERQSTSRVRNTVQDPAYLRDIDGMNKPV
# [6] = Safety pharmacology rat studies; format: in vivo; conditions: oral doses up to 30 mg/kg, data not shown
# [7] = General tolerability / overt behavioral effects; format: in vivo; conditions: guinea pig, rat, cat and dogs
# Dopamine transporter = Dopamine transporter (Homo sapiens, UniProt Q01959); experiment: MDS Pharma Services counterscreen binding; conditions: semi-quantitative
# Dopamine transporter, sequence (Q01959 whole entry): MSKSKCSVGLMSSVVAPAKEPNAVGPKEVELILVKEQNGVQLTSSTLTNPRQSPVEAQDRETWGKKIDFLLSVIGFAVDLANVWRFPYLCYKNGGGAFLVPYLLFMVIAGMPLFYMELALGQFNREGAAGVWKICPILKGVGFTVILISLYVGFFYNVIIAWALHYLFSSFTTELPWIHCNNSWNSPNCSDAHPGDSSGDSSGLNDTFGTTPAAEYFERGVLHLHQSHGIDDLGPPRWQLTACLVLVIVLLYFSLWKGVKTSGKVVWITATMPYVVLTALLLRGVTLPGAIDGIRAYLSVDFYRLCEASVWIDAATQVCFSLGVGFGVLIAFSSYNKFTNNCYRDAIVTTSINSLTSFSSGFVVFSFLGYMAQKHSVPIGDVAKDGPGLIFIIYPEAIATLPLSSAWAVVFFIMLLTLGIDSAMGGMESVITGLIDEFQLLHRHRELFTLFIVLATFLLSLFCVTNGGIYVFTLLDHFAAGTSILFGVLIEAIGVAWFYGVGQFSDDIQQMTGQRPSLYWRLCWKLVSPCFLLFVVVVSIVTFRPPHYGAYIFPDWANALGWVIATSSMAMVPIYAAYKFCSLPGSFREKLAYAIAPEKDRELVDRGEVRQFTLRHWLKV
# [8] = Pharmacokinetic profile in the guinea pig; format: in vivo
# Cat NOP receptor = experiment: NOP receptor binding, brain; conditions: Mean±S.E.M.
# Dog NOP receptor = experiment: NOP receptor binding, brain; conditions: Mean±S.E.M.
# [9] = Pharmacokinetic profile in the dog; format: in vivo
# Guinea pig NOP receptor = Guinea pig NOP receptor (Cavia porcellus, UniProt P47748); experiment: NOP receptor binding, brain; conditions: guinea pig brain (cortex); Mean±S.E.M.
# Guinea pig NOP receptor, sequence (P47748 whole entry): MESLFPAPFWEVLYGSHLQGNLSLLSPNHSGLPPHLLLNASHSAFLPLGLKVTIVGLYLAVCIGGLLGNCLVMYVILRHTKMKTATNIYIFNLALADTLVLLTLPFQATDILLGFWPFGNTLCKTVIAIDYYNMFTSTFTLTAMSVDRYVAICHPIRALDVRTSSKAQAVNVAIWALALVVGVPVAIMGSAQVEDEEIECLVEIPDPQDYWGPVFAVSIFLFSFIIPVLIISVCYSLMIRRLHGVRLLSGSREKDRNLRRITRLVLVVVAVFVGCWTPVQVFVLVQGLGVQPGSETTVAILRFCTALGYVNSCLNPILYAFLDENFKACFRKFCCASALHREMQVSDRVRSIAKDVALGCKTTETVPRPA
# Dopamine D3 = Dopamine D3 (Homo sapiens, UniProt P35462); experiment: MDS Pharma Services counterscreen binding; conditions: semi-quantitative
# Dopamine D3, sequence (P35462 whole entry): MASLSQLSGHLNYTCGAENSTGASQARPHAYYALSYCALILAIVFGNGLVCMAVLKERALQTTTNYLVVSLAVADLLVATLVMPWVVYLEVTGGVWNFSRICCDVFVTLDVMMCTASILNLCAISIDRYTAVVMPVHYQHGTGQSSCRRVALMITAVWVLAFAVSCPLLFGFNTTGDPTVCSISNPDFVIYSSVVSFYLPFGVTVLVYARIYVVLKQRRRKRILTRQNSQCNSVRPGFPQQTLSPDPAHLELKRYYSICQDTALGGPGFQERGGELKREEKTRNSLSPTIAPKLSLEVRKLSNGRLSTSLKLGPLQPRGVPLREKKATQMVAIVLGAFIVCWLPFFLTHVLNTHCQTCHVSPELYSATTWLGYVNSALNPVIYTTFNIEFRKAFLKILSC
# [10] = system: MDS Pharma enzyme and receptor binding assays (benzodiazepine, bradykinin, dopamine D1/D2/D4, GABA, glutamate, glycine, serotonin, tachykinin); experiment: MDS Pharma Services counterscreen panel, remaining assays; conditions: tested at 10 μM; active = greater than 50% inhibition
# Sodium channel, site 2 = experiment: MDS Pharma Services counterscreen binding; conditions: site 2 (rat), semi-quantitative
# Sigma (non-selective) = experiment: MDS Pharma Services counterscreen binding; conditions: Sigma (non-selective, guinea pig); semi-quantitative
compound,measurement,setting,value
"CN1CC[C@]23c4c5ccc(O)c4O[C@H]2[C@@H](O)C=C[C@H]3[C@H]1C5 [morphine, reference compound]",conditioned place preference (time spent in drug paired side),[1],induced a marked conditioned place preference; also recorded: increased the time spent on the drug paired side
"O=C1CC[C@@]2(O)[C@H]3Cc4ccc(O)c5c4[C@@]2(CCN3CC2CC2)[C@H]1O5 [naltrexone, reference compound]","action on capsaicin-induced cough responses, given alone","capsaicin-induced cough; J113397 12 mg/kg i.p., naltrexone 10 mg/kg p.o.",Neither naltrexone nor J113397 given alone had any actions
"OC1(c2ncccn2)CC2CCC(C1)N2C(c1ccccc1Cl)c1ccccc1Cl (centres unmarked) [SCH 486757, 8-[Bis(2-Chlorophenyl)Methyl]-3-(2-Pyrimidinyl)-8-Azabicyclo-[3.2.1.]Octan-3-Ol]",Ki,Rat NOP receptor,6.6 ± 0.15 nM
same,Ki,Serotonin 5-HT6,2350 nM
same,AUC,[2],1.29 µM·h
same,Cmax,[2],127 nM
same,Tmax,[2],3.3 h
same,effect on inspiratory electromyogram amplitude,[3],did not significantly affect; also recorded: no significant effect
same,Ki,[4],14700 ± 2560 nM
same,Ki,[5],590 ± 40 nM
same,effect on blood gases or respiratory function parameters,[6],did not affect
same,antitussive activity at 2 and 6 h,"capsaicin-induced cough; 0.1 mg/kg, p.o., 2 and 6 h",Significant antitussive activity
same,"inhibition of capsaicin-evoked coughing, chronic dosing","capsaicin-induced cough; 1 mg/kg p.o., 5-day BID regimen, 2 h post last dose",40 ± 11%
same,"inhibition of capsaicin-evoked coughing, acute dosing","capsaicin-induced cough; 1 mg/kg p.o., single dose, 2 h post treatment",46 ±9%
same,inhibition of cough at 24 h,"capsaicin-induced cough; 1 mg/kg, p.o., 24 h, data not shown",did not inhibited cough
same,tolerance to antitussive activity,"capsaicin-induced cough; 5-day BID dosing regimen, 1 mg/kg p.o.",does not produce tolerance
same,antitussive effect in presence of naltrexone,"capsaicin-induced cough; SCH 486757 3 mg/kg p.o., naltrexone 10 mg/kg p.o., 2 h",not by naltrexone
same,ED50 against capsaicin-induced cough,"capsaicin-induced cough; p.o., 4 h post administration",0.04 mg/kg
same,"maximum efficacy, cough suppression","capsaicin-induced cough; p.o., 4 h post administration",66 ± 6%
same,"tolerability, overt behavioral effects",[7],well tolerated
same,Ki,Dopamine transporter,8430 nM
same,AUC,[8]; 0.03 mg/kg p.o.,0.027 µM·h
same,Tmax,[8]; 0.03 mg/kg p.o.,3 h
same,plasma concentration during the 2- to 4-hour time period,[8]; 0.03 mg/kg p.o.,about 2 nM
same,Cmax,"[8]; 0.03 mg/kg p.o., 0.03 mg/kg",3.1 nM and 3 nM
same,AUC,[8]; 0.30 mg/kg p.o.,0.242 µM·h
same,Cmax,[8]; 0.30 mg/kg p.o.,31 nM
same,Tmax,[8]; 0.30 mg/kg p.o.,3 h
same,Ki,Cat NOP receptor,6.7 ± 0.67 nM
same,Ki,Dog NOP receptor,5.3 ± 0.71 nM
same,half-life (t1/2),[9]; 3 mg/kg intravenous,7.9 h
same,mean AUC,[9]; 3 mg/kg intravenous,5.68 µM·h
same,AUC,[9]; 3 mg/kg p.o.,1.84 µM·h
same,Cmax,[9]; 3 mg/kg p.o.,540 nM
same,Tmax,[9]; 3 mg/kg p.o.,0.8 h
same,percent bioavailability (F%),[9]; 3 mg/kg p.o. vs intravenous,32%
same,Ki,Guinea pig NOP receptor,5.4 ± 0.32 nM
same,Ki,Dopamine D3,3660 nM
same,number of entries into the drug paired side,[1]; 10 mg/kg p.o.,did not alter
same,conditioned place preference (time spent in drug paired side),[1],without effect; also recorded: did not produce any conditioned place preference; also recorded: no effect
same,activity in remaining MDS Pharma enzyme and receptor binding assays,[10],did not show significant affinity
same,Ki,"Sodium channel, site 2",5580 nM
same,Ki,Sigma (non-selective),7120 nM
"CC(N)Cc1ccccc1 (centres unmarked) [amphetamine, reference compound]",conditioned place preference (time spent in drug paired side),[1],induced a marked conditioned place preference; also recorded: increased the time spent on the drug paired side
"COc1ccc2c3c1O[C@H]1[C@@H](O)C=C[C@H]4[C@@H](C2)N(C)CC[C@@]341 [codeine, reference compound]","doses producing significant CNS effects (lethargy, ataxia)",capsaicin-induced cough,higher than 60 mg/kg
same,antitussive efficacy compared between SCH 486757 and standards,"capsaicin-induced cough; p.o., 4 h",comparable antitussive efficacies
"COc1ccc2c(c1)[C@]13CCCC[C@@H]1[C@H](C2)N(C)CC3 [dextromethorphan, reference compound]","doses producing significant CNS effects (lethargy, ataxia)",capsaicin-induced cough,> 100 mg
